Data as given in patent US20230098111A1, “COMPOSITIONS AND METHODS TO TREAT NEUROLOGICAL DISEASES” (University of Southern California, priority 2020, published 2023).
“Also recorded” adds a separate entry of the source.

Key:
[1] = Apilimod pharmacokinetics (CSF concentration after oral dosing); assay type: in vivo
Source text: All doses rescue iMN survival.
Testing the safety of ASO-mediated suppression of PIKFYVE as a therapeutic strategy. […] While it may be possible to generate a suitable PIKFYVE inhibitor using medicinal chemistry, this is an expensive and time-consuming endeavor. In contrast to small molecules, ASOs provide a facile approach to targeting the CNS because they can be injected directly into the spinal cord, achieve sustained target engagement throughout the CNS, and are less likely to cause peripheral toxicity. Thus, ASO-mediated PIKFYVE suppression was tested as a therapeutic approach for ALS, FTD, and Alzheimer's disease.

[2] = system: C9ORF72 dipeptide repeat proteins; assay: DPR levels in C9ORF72-BAC mice; assay type: in vivo
Experimental: DRP aggregates (Poly(GR) red) accumulate in the cells (white outline) of C9-BAC mice.
(§1) (A) Mass spectrometry analysis of Optineurin (OPTN) levels in the cerebrospinal fluide (CSF) of mice 2 hours after direct intracerebroventral injection of a vehicle control or apilimod. n=3 mice per group. The ratio of Optineurin in the CSF of apilimod:vehicle-injected mice is shown. (B) Poly(GR)+ DPR punctae in wild-type or C9ORF72 mice treated with intracerebroventricular injection of apilimod for 48 hours. Mean+/−s.e.m. Data points are individual neurons taken across 3 mice per group. One-way ANOVA. […] Unpaired t-test. (D) Pikfyve qRT-PCR of whole brain. n=3 mice per group at postnatal day 7. Unpaired t-test. (E) Gait impairment scoring in wild-type (WT) and TDP-43 homozygous mice treated with a negative control (NC) ASO or Pikfyve ASO at postnatal day 1. Mean+/−s.e.m. Unpaired t-test at each time point between the negative control and Pikfyve ASO conditions for TDP-43 mice. A score of 0 indicates no phenotype and 4 indicates the most severe phenotype. (F) Vehicle or GW4869 were delivered by intraperitoneal injection every 48 h starting from day 6 in negative control and Pikfyve ASO-treated mice. Mean+/−s.e.m. One-way ANOVA at each time point between the four conditions. *p<0.05, **p<0.01, ***p<0.001, ****p<0.0001.
PIKFYVE inhibition rescues neurodegeneration in vivo. […] Since TARDBP overexpressing mice show motor deficits and neurodegeneration, we used TARDBP mice to test the efficacy of Pikfyve suppression.
Determining whether PIKfyve-targeting ASOs can reverse ALS disease progression in vivo. To determine if PIKfyve-targeting ASOs can reverse ALS disease processes in vivo, can PIKfyve ASOs lower levels of C9ORF72 dipeptide repeat proteins in mice. Dipeptide repeat proteins are generated from the C9ORF72 repeat expansion by repeat-associated non-AUG-dependent translation and are neurotoxic.
To determine if ASO-mediated Pikfyve suppression lowers C9ORF72 poly(GR) levels in mice, Pikfyve ASOs were injected into the hippocampus of adult C9ORF72-BAC mice, which harbor a C9ORF72 repeat expanded transgene and accumulate poly(GR)+ aggregates in hippocampal neurons.

TDP-43 [3] = assay: Nuclear:cytoplasmic TDP-43 in sporadic ALS iMNs; assay type: cell-based, human; settings: DMSO or apilimod
Optineurin (OPTN) = assay: Optineurin in CSF of mice after intracerebroventricular apilimod; assay type: in vivo; settings: intracerebroventricular injection into adult mice; mass spectrometry; apilimod vs vehicle
Experimental: as §1
PIKFYVE inhibition rescues neurodegeneration in vivo. […]

TDP-43 [4] = assay: TDP-43 localization in C9ORF72 iNs; assay type: cell-based, human; settings: DMSO or apilimod
Source text: (§2) (A) Survival of C9ORF72 iNs with DMSO or apilimod. Log-rank test, 100 iNs per group. […] Log-rank test, 100 iNs per group. […] Mean+/−s.e.m. Kruskal-Wallis Test.

TARDBP iNs = assay: Survival of TARDBP FTD iNs; assay type: cell-based, human; settings: DMSO or apilimod
Source text: as §2
Thus, a collection of MAPT, C9ORF72, and TARDBP FTD lines that provide relevant models of FTD were established.

MAPT V337M iNs = assay: Survival of MAPT FTD iNs; assay type: cell-based, human; settings: DMSO or apilimod (3 uM in FIG. 28)
Experimental: as §2
(A) Survival of control or SOD1 A4V iMNs with DMSO or 3 uM apilimod. (B) Survival of TDP-43 G298S iMNs with DMSO or 3 uM apilimod. (C) Survival of MAPT V337M or isogenic control iNs.
Mutations in MAPT cause FTD with tau aggregates. To determine if iNs from FTD patients display neurodegenerative phenotypes, an established method to generate cortical neurons from iPSCs by forced expression of NGN2 was used. 3 FTD patient iPSC lines harboring a MAPTV337M mutation and their CRISPR-edited isogenic controls from a published cell bank were utilized. Neurons from MAPT-mutant iPSCs display increased phosphorylated and oligomeric tau, similar to post-mortem patient tissue (FIG. 18A). […] Thus, MAPT iNs display key features of FTD with tau pathology.
PIKFYVE inhibition rescues the survival of TARDBP ALS, SOD1 ALS, and MAPT FTD patient neurons. Since the accumulation of misfolded proteins is a common disease mechanism in all forms of ALS, FTD, and Alzheimer's disease, it was reasoned that inducing secretory autophagy might rescue neurodegeneration in diverse patients. iMNs were generated from ALS patients harboring mutations in TARDBP or SOD1 as well as NGN2-induced neurons (iNs) from MAPT^V337M FTD. […]

C9ORF72 DPRs = assay: DPR levels in C9ORF72 iNs; assay type: cell-based, human
Source text: 2000 approved drugs and 1800 target-annotated tool compounds were screened on C9ORF72 FTD iNs.

[5] = injection of apilimod into the hippocampus

Experimental for control iMNs: Drug screening iMNs from both C90RF72 and sporadic ALS patients. […] Chemical screens were then performed to search for targets that can rescue the degeneration of iMNs from multiple patients. 2000 approved drugs and 1800 target-annotated tool compounds were screened on C9ORF72 ALS/FTD iMNs.

metabolic stability in vivo ([1]; in vivo): poor metabolic stability in vivo
Compound: Cc1cccc(/C=N/Nc2cc(N3CCOCC3)nc(OCCc3ccccn3)n2)c1 [apilimod]
brain exposure ([1]; oral dosing at 100 mg/kg, CSF concentration): does not achieve sufficient brain exposure | levels of poly(GR) in C9ORF72-BAC mice [2, 5]: reduced levels | levels of poly(PR) in C9ORF72-BAC mice [2, 5]: reduced levels | DPR levels in C9ORF72-BAC mice ([2]; intracerebroventricular injection of apilimod): lowered DPR levels | nuclear localization of TDP-43 in sporadic ALS iMNs (TDP-43 [3]): rescued the nuclear localization of TDP-43 | increase in CSF OPTN levels (Optineurin (OPTN)): 18 fold | TDP-43 mislocalization in C9ORF72 iNs (TDP-43 [4]): rescued TDP-43 mislocalization | survival of TARDBP iNs (TARDBP iNs): potently rescued | survival of MAPT FTD iNs (MAPT V337M iNs): potently rescued; also recorded: rescued the survival | DPR levels in C9ORF72 iNs (C9ORF72 DPRs): lowered DPR levels | control iMN survival (control iMNs): did not
